The text below walks through data of patent US20110060009A1, “Hydroxamate-Based Inhibitors of Deacetylases” (NOVARTIS AG, priority 2009, published 2011).

The test system of one assay is HCT116. The experiment in a line: HCT116 IC50 (Table 2, no method described). In kind it is cell-based. The settings on record: Homo sapiens, HCT-116.
The target in the next assay is T1, HDAC-1 (Homo sapiens, UniProt Q13547).
T1 construct: made in house; host or cells: Sf9 or Sf21 insect cells (baculovirus, donor vector pFB-GSTX3)
The experiment in a line: HDAC Inhibition Assay (purified GST-HDAC protein). In kind it is biochemical. An excerpt:
The baculovirus donor vector pFB-GSTX3 is used to generate a recombinant baculovirus that expresses the HDAC polypeptide. Transfer vectors containing the HDAC coding region are transfected into the DH10Bac cell line (GIBCO) and plated on selective agar plates. Colonies without insertion of the fusion sequence into the viral genome (carried by the bacteria) are blue. Single, white colonies are picked and viral DNAs (bacmid) are isolated from the bacteria by standard plasmid purification procedures. Sf9 cells or Sf21 (American Type Culture Collection) cells are then transfected in […] flasks with the viral DNA using Cellfectin reagent.
Virus-containing media is collected from the transfected cell culture and used for infection to increase its titer. Virus-containing media obtained after two rounds of infection is used for large-scale protein expression. For large-scale protein expression 100 cm^2 round tissue culture plates are seeded with 5×10^7 cells/plate and infected with 1 mL of virus-containing media (at an approximately MOI of 5). After 3 days, the cells are scraped off the plate and centrifuged at 500 rpm for 5 minutes. Cell pellets from 10-20, 100 cm^2 plates, are re-suspended in 50 mL of ice-cold lysis buffer (25 mM tris-HCl, pH 7.5, 2 mM EDTA, 1% NP-40, 1 mM DTT, 1 mM P MSF). The cells are stirred on ice for 15 minutes and then centrifuged at 5,000 rpms for 20 minutes.
The centrifuged cell lysate is loaded onto a 2 mL glutathione-sepharose column (Pharmacia) and is washed thrice with 10 mL of 25 mM tris-HCl, pH 7.5, 2 mM EDTA, 1 mM DTT, 200 mM NaCl. The GST-tagged proteins are then eluted by 10 applications (1 mL each) of 25 mM tris-HCl, pH 7.5, 10 mM reduced-glutathione, 100 mM NaCl, 1 mM DTT, 10% glycerol and stored at −70° C.
HDAC assays with purified GST-HDAC protein are carried out in a final volume of 30 μL containing 15 ng of GST-HDAC protein, 20 mM tris-HCl, pH 7.5, 1 mM MnCl2, 10 mM MgCl2, 1 mM DTT, 3 μg/mL poly(Glu,Tyr) 4:1, 1% DMSO, 2.0 μM ATP (γ-[^33P]-ATP 0.1 μCi). The activity is assayed in the presence or absence of inhibitors. The assay is carried out in 96-well plates at ambient temperature for 15 minutes under conditions described below and terminated by the addition of 20 μL of 125 mM EDTA. Subsequently, 40 μL of the reaction mixture are transferred onto EMMOBILON-PVDF membrane (Millipore) previously soaked for 5 minutes with methanol, rinsed with water, then soaked for 5 minutes with 0.5% H3PO4 and mounted on vacuum manifold with disconnected vacuum source. After spotting all samples, a vacuum is connected and each well-rinsed with 200 μL 0.5% H3PO4. Membranes are removed and washed four times on a shaker with 1.0% H3PO4, once with ethanol. Membranes are counted after drying at ambient temperature, mounting in Packard TopCount 96-well frame, and addition of 10 μL/well of MICROSCINT™ (Packard). IC50 values are calculated by linear regression analysis of the percentage inhibition of each compound in duplicate, at 4 concentrations (usually 0.01, 0.1, 1 and 10 μM).
• Input: 3×4 μL stopped assay on IMMOBILON membrane, not washed • Background (3 wells): assay with H2O instead of enzyme • Positive control (4 wells): 3% DMSO instead of compound • Bath control (1 well): no reaction mix
IC50 values are calculated by logarithmic regression analysis of the percentage inhibition of each compound at 4 concentrations (usually 3- or 10-fold dilution series starting at 10 μM). In each experiment, the actual inhibition by reference compound is used for normalization of IC50 values to the basis of an average value of the reference inhibitor:
Normalized IC50=measured IC50 average ref. IC50/measured ref. IC50

T1 sequence (Q13547 whole entry, species assumed): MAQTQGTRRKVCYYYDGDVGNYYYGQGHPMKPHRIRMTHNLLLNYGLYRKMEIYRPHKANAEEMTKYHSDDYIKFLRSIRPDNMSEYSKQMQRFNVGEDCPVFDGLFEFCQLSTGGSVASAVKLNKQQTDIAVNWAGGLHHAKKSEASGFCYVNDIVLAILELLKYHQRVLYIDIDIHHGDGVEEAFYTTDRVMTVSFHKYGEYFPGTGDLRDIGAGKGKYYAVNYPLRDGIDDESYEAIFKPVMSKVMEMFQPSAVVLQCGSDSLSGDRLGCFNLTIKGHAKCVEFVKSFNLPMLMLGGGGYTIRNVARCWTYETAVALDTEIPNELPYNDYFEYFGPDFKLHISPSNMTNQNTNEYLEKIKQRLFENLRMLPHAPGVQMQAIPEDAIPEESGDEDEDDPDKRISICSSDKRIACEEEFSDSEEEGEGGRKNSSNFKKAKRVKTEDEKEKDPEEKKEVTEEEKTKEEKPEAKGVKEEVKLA

A word on the IC50: it is the point on the concentration scale where inhibition reaches its midpoint. A higher IC50 goes with weaker potency in that assay. As to `O=C(/C=C/c1ccc(CN2C[C@@H](O)C[C@@H]2Cc2c[nH]c3ccccc23)cc1)NO` [Cpd 22, (E)-N-Hydroxy-3-{4-[(2S,4S)-4-hydroxy-2-(1H-indol-3-ylmethyl)-pyrrolidin-1-ylmethyl]-phenyl}-acrylamide], the IC50 was 4 nM in the assay on HCT116 and 0.45 nM against HDAC-1.
The matching figures for `O=C(/C=C/c1ccc(CN2C[C@H](O)C[C@@H]2Cc2c[nH]c3ccccc23)cc1)NO` [Cpd 23, (E)-N-Hydroxy-3-{4-[(2S,4R)-4-hydroxy-2-(1H-indol-3-ylmethyl)-pyrrolidin-1-ylmethyl]-phenyl}-acrylamide]: 8 nM and 1.7 nM.
For `CO[C@@H]1C[C@H](Cc2c(C)[nH]c3ccccc23)N(Cc2ccc(/C=C/C(=O)NO)cc2)C1` [Cpd 24, (E)-N-Hydroxy-3-{4-[(2S,4R)-4-methoxy-2-(2-methyl-1H-indol-3-ylmethyl)-pyrrolidin-1-ylmethyl]-phenyl}-acrylamide], the 50% inhibitory concentration (IC50) in the assay on HCT116 came out at 0.5 nM; against HDAC-1, 1.2 nM.
Take `CO[C@H]1C[C@H](Cc2c(C)[nH]c3ccccc23)N(Cc2ccc(/C=C/C(=O)NO)cc2)C1` [Cpd 25, (E)-N-Hydroxy-3-{4-[(2S,4S)-4-methoxy-2-(2-methyl-1H-indol-3-ylmethyl)-pyrrolidin-1-ylmethyl]-phenyl}-acrylamide]: the 50% inhibitory concentration (IC50) in the assay on HCT116 amounted to 0.4 nM; on HDAC-1 it was 1.2 nM.
For `Cc1nn(C)c(C)c1C[C@H]1C[C@H](O)CN1Cc1ccc(/C=C/C(=O)NO)cc1` [Cpd 31, (E)-N-Hydroxy-3-{4-[(2S,4S)-4-hydroxy-2-(1,3,5-trimethyl-1H-pyrazol-4-ylmethyl)-pyrrolidin-1-ylmethyl]-phenyl}-acrylamide], the IC50 in the assay with HCT116 is 16 nM; against HDAC-1 it was 2 nM.
For `O=C(/C=C/c1ccc(CN2CCC[C@@H]2Cn2cccn2)cc1)NO` [Cpd 49, (E)-N-Hydroxy-3-[4-((R)-2-pyrazol-1-ylmethyl-pyrrolidin-1-ylmethyl)-phenyl]-acrylamide] the same measures were 26 nM and 15 nM.
For `Cc1cc(C)n(C[C@H]2CCCN2Cc2ccc(/C=C/C(=O)NO)cc2)n1` [Cpd 50, (E)-3-{4-[(R)-2-(3,5-Dimethyl-pyrazol-1-ylmethyl)-pyrrolidin-1-ylmethyl]-phenyl}-N-hydroxy-acrylamide] the same measures were 4 nM and 3 nM.
The matching figures for `O=C(/C=C/c1ccc(CN2CCC[C@@H]2Cn2nc(C(F)(F)F)cc2C(F)(F)F)cc1)NO` [Cpd 51, (E)-3-{4-[(R)-2-(3,5-Bis-trifluoromethyl-pyrazol-1-ylmethyl)-pyrrolidin-1-ylmethyl]-phenyl}-N-hydroxy-acrylamide]: 31 nM and 39 nM.
Turning to `O=C(/C=C/c1ccc(CN2C[C@H](O)C[C@@H]2Cn2nc(C(F)(F)F)cc2C(F)(F)F)cc1)NO` [Cpd 52, (E)-3-{4-[(2R,4R)-2-(3,5-Bis-trifluoromethyl-pyrazol-1-ylmethyl)-4-hydroxy-pyrrolidin-1-ylmethyl]-phenyl}-N-hydroxy-acrylamide], the IC50 was found to be 52 nM in the assay with HCT116 and 37 nM on HDAC-1.
